Results: PMC6099841, “New Chromane-Based Derivatives as Inhibitors of Mycobacterium tuberculosis Salicylate Synthase (MbtI): Preliminary Biological Evaluation and Molecular Modeling Studies” (Molecules : A Journal of Synthetic Chemistry and Natural …, 2018)
Like-named read-outs stand apart in the source and are kept apart here.

How the values were obtained:
Assay in all cases: biochemical
[1] = biological target: T1, salicylate synthase MbtI (Mycobacterium tuberculosis, UniProt P9WFX1)
[2] = biological target: T1, salicylate synthase MbtI; remark: listed apart in the source
[3] = biological target: T1, salicylate synthase MbtI; conditions: read-out: MbtI Residual Activity at 100 μM

T1 sequence (P9WFX1 whole entry): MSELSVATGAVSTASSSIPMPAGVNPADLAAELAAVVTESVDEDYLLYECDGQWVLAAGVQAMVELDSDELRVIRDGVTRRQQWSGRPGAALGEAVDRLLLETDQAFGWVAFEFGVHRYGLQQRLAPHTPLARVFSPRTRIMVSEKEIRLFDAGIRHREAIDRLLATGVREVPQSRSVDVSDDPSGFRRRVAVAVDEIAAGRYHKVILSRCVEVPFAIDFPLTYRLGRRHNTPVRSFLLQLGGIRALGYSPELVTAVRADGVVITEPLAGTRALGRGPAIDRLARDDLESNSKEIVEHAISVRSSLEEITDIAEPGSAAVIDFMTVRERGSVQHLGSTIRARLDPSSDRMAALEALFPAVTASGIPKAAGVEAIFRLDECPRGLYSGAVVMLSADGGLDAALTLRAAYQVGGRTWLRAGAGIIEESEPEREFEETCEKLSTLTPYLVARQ

CC=C(Oc1cccc(C(=O)O)c1O)C(=O)O [I, (1-carboxyprop-1-enyloxy)-2-hydroxybenzoic acid]
IC50 [1]: 11.6 ± 2.4 µM

CC1CC(=O)c2c(cc(O)cc2C(=O)O)O1 (stereo not shown) [compound 1, 7-Hydroxy-2-methyl-4-oxo-3,4-dihydro-2H-benzopyran-5-carboxylic acid]
IC50 ([2]; read-out: IC50): 55.8 ± 4.2 µM

O=C(O)c1cc(O)cc2c1C(=O)CCO2 [compound 2, 7-Hydroxy-4-oxo-3,4-dihydro-2H-benzopyran-5-carboxylic acid]
IC50 ([2]; read-out: MbtI IC50): 61.3 ± 5.3 µM

CC1CCc2c(cc(O)cc2C(=O)O)O1 (stereo not shown) [compound 5, 7-Hydroxy-2-methylchroman-5-carboxylic acid]
remaining activity at 100 µM [3]: 50.1 ± 7.1%
